Measured values: patent US9409880B2, “Modulators of TLR3/dsRNA complex and uses thereof” (The Regents of the University of Colorado, a body corporate, priority 2011, dated 2016)
“Also recorded” adds a separate entry of the source.

Key:
representative kinases = assay: Kinase profiling; assay type: biochemical; settings: 10 μM
MCP-1 = assay: In vivo poly IC-induced serum MCP-1 in wild-type mice; settings: pretreatment 30 minutes prior to 100 μg poly IC i.v., serum 4 hours after
Experimental: Wild-type mice were treated with a single 100 μg of poly IC i.v. injection and the serum concentration of MCP-1 was investigated 4 hours after the treatment. […] Pretreatment with compound 4a at various concentrations 30 minutes prior to poly I:C application decreased MCP-1 production by about 50%.

Cyp2D6 = molecular target: T1, Cyp2D6 (Homo sapiens, UniProt P10635); assay: Cytochrome P450 toxicity assay; assay type: in vitro ADME; settings: 25 μM and 50 μM; compared to known inhibitor quinidine
T1 construct: tissue Apredica (testing lab); host or cells: microsomes (subcellular fractions)
Experimental: (§1) Test agent was incubated (two wells per condition) with microsomes at 37° C. Control incubations containing vehicle or reference inhibitors were run along side the test agents. The final assay contained test agent, probe substrates at the indicated concentration, 2 mM NADPH, 3 mM MgCl2 in 50 mM potassium phosphate buffer, pH 7.4. The final microsomal concentration was 0.5 mg/mL. The maximum solvent concentration in the final assay was ≦0.5% to minimize the inhibition of Cyps by solvent. NADPH was added last to start the assay. At the end of ten minutes incubation, the assay was stopped by the addition of acetonitrile containing internal standard, the samples were centrifuged, and the amount of probe metabolite in the supernatant was determined by LC/MS/MS. (Testing was done by Apredica, Watertown, Mass. using subcellular fractions)

Cyp3A4 = molecular target: T2, Cyp3A4 (Homo sapiens, UniProt P08684); assay: Cytochrome P450 toxicity assay; assay type: in vitro ADME; settings: 25 μM and 50 μM; compared to known inhibitor ketoconazole
T2 construct: tissue Apredica (testing lab); host or cells: microsomes (subcellular fractions)
Experimental: as §1

TLR3 = molecular target: T3, TLR3 (Mus musculus, UniProt Q99MB1); assay: In vitro TLR3 inhibition assay: Poly IC-induced NO production in RAW 264.7 cells; assay type: cell-based
T3 construct: endogenous in cells; host or cells: RAW 264.7
T3 sequence (Q99MB1 26-905): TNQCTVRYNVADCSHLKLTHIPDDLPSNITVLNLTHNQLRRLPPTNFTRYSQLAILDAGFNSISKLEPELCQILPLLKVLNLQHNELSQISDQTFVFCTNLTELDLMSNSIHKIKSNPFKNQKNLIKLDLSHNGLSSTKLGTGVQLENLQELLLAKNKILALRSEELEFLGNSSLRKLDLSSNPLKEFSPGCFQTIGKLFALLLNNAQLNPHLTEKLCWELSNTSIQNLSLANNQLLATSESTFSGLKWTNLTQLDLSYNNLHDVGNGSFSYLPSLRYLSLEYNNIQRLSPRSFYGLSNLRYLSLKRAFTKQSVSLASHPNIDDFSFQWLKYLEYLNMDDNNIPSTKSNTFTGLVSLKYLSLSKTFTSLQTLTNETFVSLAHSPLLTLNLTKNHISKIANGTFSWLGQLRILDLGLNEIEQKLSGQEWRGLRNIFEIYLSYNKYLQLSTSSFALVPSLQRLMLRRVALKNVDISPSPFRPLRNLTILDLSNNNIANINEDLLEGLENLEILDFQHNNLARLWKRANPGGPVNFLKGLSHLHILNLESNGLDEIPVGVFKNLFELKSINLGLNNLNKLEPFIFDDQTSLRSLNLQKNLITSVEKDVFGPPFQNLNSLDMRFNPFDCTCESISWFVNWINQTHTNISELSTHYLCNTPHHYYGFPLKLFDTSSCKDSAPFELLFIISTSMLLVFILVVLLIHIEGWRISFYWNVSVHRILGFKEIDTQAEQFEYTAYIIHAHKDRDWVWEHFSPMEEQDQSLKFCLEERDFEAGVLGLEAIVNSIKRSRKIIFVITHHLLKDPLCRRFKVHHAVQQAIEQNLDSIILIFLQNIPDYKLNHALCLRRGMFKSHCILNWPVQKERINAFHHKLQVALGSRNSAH
Description: The initial hits (Figure A) were first evaluated using the present inventors' previously established high-throughput cell assay of TLR3 activation. See, for example, ACS Med. Chem. Lett. 2010, 1, 194 and Bioorg. Med. Chem. Lett., 2010, 20, 5411. Poly IC (Polyriboinosinic:polyribocytidylic acid) has been reported to selectively activate TLR3 signaling, resulting in the activation of nitric oxide synthase and the production nitric oxide (NO) in RAW 264.7 macrophage cells. The NO level was monitored as an indicator of Poly IC-induced TLR3 activation to evaluate the drug's inhibitory activity.
RAW 264.7 (Mouse leukaemic monocyte macrophage cell line) cells were grown in RPMI 1640 medium, supplemented with 10% FBS, penicillin (100 U/mL) and streptomycin ([…]). RAW cells were then planted in 96-well plates at 100,000 cells per well and grown for 24 h in the media descried previously at 37° C. in a 5% CO2 humidified incubator. After 24 h, non-adherent cells and media were removed and replaced with fresh RPMI 1640 medium (only RPMI). The adherent macrophages were treated with high molecular weight polyinosine-polycytidylic acid (Poly IC) (10 μg/mL) (Invivogen), an agonist of TLR3, and then added different concentrates of potential inhibitor. Two rows were only treated with Poly IC as an control. Plates were then incubated for an additional 24 h. Following incubation 100 μL of media was removed and added to flat black 96-well microfluor plates (Thermo Scientific, MA, USA). To each well, 10 μL of 2,3-diaminonaphthalene (0.05 mg/mL in 0.62 M aqueous HCl solution) was added and incubated for 15 min in the dark. The reaction was quenched by addition of 5 μL of a 3 M aqueous NaOH solution and the plate was read on Beckman Coulter DTX880 reader (Beckman Coulter, Calif., USA) with excitation at 365 nm and emission at 450 nm. The nitrite (a stable metabolite of nitric oxide) concentration was determined from a nitrite standard curve. The inhibition rate (%) of NO release was determined using the following formula: Inhibition (%)=[Poly IC(OD450)−Compounds (OD450)]/[Poly IC(OD450)−Control (OD450)]×100. The IC50 values for both inhibition and cytotoxicity were determined graphically using software Origin v7.5.

RANTES = assay: In vivo poly IC-induced RANTES production; parameters: species or system mice
[1] = system: poly IC-induced impaired re-endothelialization; assay: Vascular repair: re-endothelialization after carotid artery denudation; assay type: in vivo, Mice; settings: 27 μg i.p. every 48 hours; 100 μg poly IC i.v.; Evan's blue staining
Experimental: Mice were subjected to a 4 mm long electric denudation of the left common carotid artery. These C57B1/6J littermates were then treated with 100 μg of poly IC or vehicle (NaCl 0.9%) via i.v. injection every 48 hours for five days. Half of the mice in each group were also treated with 27 μg compound 4a or vehicle (DMSO) via i.p. injection every 48 hours. The mice were then sacrificed and aortic arch including both common carotid arteries excised. The remaining endothelial lesion was visualized using Evan's blue staining.

T1 sequence (P10635 whole entry): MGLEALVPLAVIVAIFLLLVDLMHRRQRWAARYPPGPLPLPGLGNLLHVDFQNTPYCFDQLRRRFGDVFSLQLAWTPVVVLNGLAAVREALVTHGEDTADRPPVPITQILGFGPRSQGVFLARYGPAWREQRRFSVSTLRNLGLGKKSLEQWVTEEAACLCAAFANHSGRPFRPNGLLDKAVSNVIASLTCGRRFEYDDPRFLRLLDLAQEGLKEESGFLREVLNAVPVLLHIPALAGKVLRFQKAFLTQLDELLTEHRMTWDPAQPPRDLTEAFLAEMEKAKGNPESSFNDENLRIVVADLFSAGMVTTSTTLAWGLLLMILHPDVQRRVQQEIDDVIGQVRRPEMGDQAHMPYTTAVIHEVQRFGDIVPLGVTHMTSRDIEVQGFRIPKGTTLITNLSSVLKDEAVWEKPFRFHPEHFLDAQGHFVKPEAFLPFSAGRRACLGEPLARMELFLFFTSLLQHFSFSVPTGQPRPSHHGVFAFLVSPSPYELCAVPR
T2 sequence (P08684 whole entry): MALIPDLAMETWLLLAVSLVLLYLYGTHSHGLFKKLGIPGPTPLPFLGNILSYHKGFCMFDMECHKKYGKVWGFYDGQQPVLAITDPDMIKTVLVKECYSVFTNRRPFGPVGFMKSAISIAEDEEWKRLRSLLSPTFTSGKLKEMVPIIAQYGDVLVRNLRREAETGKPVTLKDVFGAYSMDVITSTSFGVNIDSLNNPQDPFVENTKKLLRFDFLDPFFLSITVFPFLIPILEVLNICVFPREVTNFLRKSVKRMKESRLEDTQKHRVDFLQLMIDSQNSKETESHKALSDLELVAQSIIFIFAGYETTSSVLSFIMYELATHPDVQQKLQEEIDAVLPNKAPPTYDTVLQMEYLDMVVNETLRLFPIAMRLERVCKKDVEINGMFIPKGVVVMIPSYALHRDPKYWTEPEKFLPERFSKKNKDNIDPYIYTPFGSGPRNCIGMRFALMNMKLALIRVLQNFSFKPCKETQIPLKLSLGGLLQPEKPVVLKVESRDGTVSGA

effect on kinase activities (representative kinases): did not significantly affect activities | TLR3 signaling in specificity test (TLR3; 27 μM, Poly IC): selectively inhibited TLR3 signaling | increase in potency compared to T5626448 (TLR3; 4a vs T5626448): ~45 fold | IC50 (TLR3; Poly IC-induced TLR3 activation, cell assay): 3.44 ± 0.41 µM
Structure (SMILES): O=C(N[C@H](Cc1ccccc1)C(=O)O)c1sc2cc(F)ccc2c1Cl [Compound 4a, (R)-2-(3-chloro-6-fluorobenzo[b]thiophene-2-carboxamido)-3-phenylpropanoic acid]
decrease of MCP-1 production (MCP-1): about 50% | toxicity to Cyp2D6 (Cyp2D6): low toxicity | toxicity to Cyp3A4 (Cyp3A4): low toxicity | RANTES production with increased pre-treatment doses (RANTES; pretreatment before poly IC i.v.): decrease of RANTES in a dose-dependent manner; also recorded: decreasing RANTES production | RANTES production with increasing poly IC doses (RANTES; pretreatment with 27 μg): significant decrease in RANTES production; also recorded: decreased RANTES production | poly IC-induced impaired re-endothelialization [1]: significantly improves poly IC-induced impaired re-endothelialization
